Data published in ChEMBL document CHEMBL1201862, “PubChem BioAssay data set” (2004).
The source made the active and inactive calls. For most assays here, no stated cut-off is given here; in the data, actives have a measured EC50 and inactives only a lower limit.

Legend:
[1] = viability of uninfected HEp-2 cells – cell-based, HTS, cytotoxicity control for RSV inhibitor project, dose response (AID 2410); assay type: functional; settings: human respiratory syncytial virus
[2] = biological target: T1, Replicative DNA helicase DnaB (Mycobacterium tuberculosis, UniProt P9WMR3); experiment: DnaB intein splicing inhibitors, dose response, biochemical, cell-free fluorescence (AID 449749); assay type: functional
T1 sequence (P9WMR3 whole entry): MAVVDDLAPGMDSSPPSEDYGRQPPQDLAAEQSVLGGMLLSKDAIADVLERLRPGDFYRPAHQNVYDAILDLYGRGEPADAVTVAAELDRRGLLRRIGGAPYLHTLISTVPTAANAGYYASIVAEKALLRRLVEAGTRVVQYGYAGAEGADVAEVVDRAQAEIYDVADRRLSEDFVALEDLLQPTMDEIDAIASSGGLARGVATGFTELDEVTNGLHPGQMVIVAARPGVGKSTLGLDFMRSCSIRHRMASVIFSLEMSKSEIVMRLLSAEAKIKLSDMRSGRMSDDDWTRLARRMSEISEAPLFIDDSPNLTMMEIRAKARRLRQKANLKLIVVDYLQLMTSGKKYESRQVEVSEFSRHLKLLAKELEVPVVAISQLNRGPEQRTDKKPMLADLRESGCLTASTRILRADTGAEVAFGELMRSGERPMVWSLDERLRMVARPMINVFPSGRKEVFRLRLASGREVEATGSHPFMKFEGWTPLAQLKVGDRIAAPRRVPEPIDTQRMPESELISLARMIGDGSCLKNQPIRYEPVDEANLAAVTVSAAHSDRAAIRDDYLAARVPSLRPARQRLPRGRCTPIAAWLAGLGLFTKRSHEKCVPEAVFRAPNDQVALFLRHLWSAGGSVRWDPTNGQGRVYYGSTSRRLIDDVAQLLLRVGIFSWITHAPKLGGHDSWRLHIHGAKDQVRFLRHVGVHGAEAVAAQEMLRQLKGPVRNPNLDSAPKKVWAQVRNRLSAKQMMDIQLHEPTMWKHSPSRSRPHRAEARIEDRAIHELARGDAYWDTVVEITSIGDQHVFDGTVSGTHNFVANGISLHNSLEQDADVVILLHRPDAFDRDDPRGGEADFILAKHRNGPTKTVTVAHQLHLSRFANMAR

Protein RecA = biological target: T2, Protein RecA (Mycobacterium tuberculosis, UniProt P9WHJ3); experiment: Fluorescence Cell-Free Homogeneous Dose Retest to Identify Inhibitors of RecA-Intein Splicing Activity. [Related pubchem assays (depositor defined):AID2097, AID2223, AID489010, AID492950]; assay type: functional
T2 sequence (P9WHJ3 whole entry): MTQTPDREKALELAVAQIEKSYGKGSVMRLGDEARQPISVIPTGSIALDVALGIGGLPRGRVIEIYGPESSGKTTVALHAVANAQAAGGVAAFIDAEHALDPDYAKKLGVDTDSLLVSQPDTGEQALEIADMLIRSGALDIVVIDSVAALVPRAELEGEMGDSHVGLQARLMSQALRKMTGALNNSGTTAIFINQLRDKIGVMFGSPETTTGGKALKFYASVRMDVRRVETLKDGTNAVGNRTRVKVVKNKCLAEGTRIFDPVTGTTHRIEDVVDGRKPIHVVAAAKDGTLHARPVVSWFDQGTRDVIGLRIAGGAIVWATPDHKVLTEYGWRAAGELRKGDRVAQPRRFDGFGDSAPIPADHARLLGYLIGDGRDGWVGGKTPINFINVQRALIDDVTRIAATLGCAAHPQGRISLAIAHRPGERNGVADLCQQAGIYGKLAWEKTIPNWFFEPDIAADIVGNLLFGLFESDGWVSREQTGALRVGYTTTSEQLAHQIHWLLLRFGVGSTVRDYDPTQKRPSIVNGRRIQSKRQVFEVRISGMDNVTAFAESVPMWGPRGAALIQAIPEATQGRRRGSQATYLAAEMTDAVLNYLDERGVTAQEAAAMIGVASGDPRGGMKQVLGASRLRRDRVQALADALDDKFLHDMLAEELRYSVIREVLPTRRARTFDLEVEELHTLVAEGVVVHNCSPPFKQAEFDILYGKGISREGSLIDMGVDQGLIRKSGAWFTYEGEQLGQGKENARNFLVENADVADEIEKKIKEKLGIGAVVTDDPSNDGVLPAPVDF

[3] = biological target: T3, Rac GTPase-activating protein 1 (Homo sapiens, UniProt Q9H0H5); experiment: blockers of MgcRacGAP-driven Rac1 GTP hydrolysis – biochemical, ADP Hunter fluorescence, primary and confirmatory, confirmation (AID 624330); assay type: functional
T3 sequence (Q9H0H5 whole entry): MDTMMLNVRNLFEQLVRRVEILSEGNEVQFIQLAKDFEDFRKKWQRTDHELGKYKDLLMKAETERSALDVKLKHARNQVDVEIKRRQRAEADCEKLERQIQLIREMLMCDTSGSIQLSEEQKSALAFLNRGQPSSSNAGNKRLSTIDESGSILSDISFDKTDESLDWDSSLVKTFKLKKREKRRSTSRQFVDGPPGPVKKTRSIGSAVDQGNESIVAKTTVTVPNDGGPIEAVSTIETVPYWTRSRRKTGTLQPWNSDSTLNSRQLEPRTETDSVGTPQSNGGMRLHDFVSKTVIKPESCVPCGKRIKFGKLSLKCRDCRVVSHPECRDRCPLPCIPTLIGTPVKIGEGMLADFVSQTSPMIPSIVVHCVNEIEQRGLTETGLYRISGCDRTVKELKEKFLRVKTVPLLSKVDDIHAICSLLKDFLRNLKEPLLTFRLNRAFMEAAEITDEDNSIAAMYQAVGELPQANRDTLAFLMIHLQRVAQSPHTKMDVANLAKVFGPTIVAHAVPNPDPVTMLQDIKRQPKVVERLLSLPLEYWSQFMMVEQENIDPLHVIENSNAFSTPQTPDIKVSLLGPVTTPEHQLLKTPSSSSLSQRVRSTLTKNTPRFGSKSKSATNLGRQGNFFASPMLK

[4] = Trypanosoma cruzi growth suppression in host cells – NIH3T3 host cells, beta-gal luminescence, confirmation (AID 2044); assay type: functional, cell-based;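 further: intracellular parasites grown in NIH/3T3 mouse fibroblasts as host cells; luminescent beta-galactosidase reporter signal from transgenic T. cruzi replicating inside host cells; inhibitors lower the luminescence signal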
[5] = NIH3T3 cell viability loss – ATP luminescence, mouse fibroblasts, counter-screen, dose response (AID 2010); assay type: functional, cell-based;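 further: cells exposed to compound for about 90 hours before reading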
BJ [6] = experiment: BJ-TERT fibroblast viability loss – cell-based, RAS-independent, luminescence, dose response (AID 1933); assay type: functional; settings: Homo sapiens
BJ [7] = experiment: cells; assay type: functional, cell-based; settings: Homo sapiens
BJ [8] = experiment: BJ-TERT-LT-ST fibroblast viability loss – cell-based, RAS-independent, luminescence, dose response (AID 1935); assay type: functional; settings: Homo sapiens;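 further: BJ fibroblasts immortalized with TERT plus LT and ST oncogenes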
[9] = DRD fibroblast viability loss – cell-based, non-viral oncogenic, luminescence, dose response (AID 1934); assay type: functional; settings: Homo sapiens
[10] = test system: Streptococcus sp. 'group A'; experiment: Streptococcus pyogenes SK(-)GAS viability under kanamycin – luminescence, BacTiterGlo, confirmation, counter-screen for streptokinase expression inhibitor project, dose response (AID 1900); assay type: functional, organism-based
Streptokinase A = biological target: T4, Streptokinase A (Streptococcus pyogenes serotype M1, UniProt P10520); experiment: viability-normalized secreted streptokinase activity reduction – plasminogen activation absorbance, OD405, dose response (AID 1914); assay type: functional, Streptococcus pyogenes M1 GAS;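 further: secreted streptokinase activity via plasminogen activation per viability signal from cell pellet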
T4 sequence (P10520 whole entry): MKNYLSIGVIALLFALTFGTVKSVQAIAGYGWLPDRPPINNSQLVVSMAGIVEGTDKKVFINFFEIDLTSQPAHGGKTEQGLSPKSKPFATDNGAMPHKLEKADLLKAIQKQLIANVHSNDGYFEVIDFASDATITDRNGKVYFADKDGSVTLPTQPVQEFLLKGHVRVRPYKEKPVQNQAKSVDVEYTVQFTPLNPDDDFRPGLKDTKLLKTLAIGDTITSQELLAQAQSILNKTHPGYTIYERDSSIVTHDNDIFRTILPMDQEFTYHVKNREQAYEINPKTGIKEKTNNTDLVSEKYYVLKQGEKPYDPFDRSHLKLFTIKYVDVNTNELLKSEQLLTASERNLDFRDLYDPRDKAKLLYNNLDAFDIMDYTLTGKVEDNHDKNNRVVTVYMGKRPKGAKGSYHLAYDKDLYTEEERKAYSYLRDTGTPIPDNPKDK

Streptococcus = experiment: GAS UMAA2166 growth inhibition – luminescence, BacTiterGlo, counter-screen for streptokinase expression inhibitor project, dose response (AID 1915); assay type: functional, organism-based;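 further: potency for reduction of bacterial viability or growth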
Cytochrome P450 2D6 = Cytochrome P450 2D6 (Homo sapiens, UniProt P10635);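 further: CYP2D6 member of a cytochrome P450 panel assay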
Sequence of Cytochrome P450 2D6 (P10635 whole entry): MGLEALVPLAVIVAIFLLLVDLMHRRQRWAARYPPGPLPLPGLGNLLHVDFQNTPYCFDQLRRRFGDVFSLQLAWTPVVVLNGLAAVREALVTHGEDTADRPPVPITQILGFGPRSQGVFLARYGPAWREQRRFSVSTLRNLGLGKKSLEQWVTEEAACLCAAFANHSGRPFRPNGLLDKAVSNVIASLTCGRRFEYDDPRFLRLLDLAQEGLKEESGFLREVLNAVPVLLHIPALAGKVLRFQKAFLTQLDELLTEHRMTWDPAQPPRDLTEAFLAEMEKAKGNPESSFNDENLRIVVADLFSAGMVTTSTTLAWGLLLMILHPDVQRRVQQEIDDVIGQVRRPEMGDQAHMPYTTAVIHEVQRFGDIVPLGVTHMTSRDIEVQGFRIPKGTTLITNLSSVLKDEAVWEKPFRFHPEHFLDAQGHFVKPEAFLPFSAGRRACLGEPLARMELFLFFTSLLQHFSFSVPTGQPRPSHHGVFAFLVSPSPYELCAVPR

Cytochrome P450 1A2 = biological target: T5, Cytochrome P450 1A2 (Homo sapiens, UniProt P05177);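 further: PubChem cytochrome P450 panel assay, CYP1A2 panel member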
T5 sequence (P05177 whole entry): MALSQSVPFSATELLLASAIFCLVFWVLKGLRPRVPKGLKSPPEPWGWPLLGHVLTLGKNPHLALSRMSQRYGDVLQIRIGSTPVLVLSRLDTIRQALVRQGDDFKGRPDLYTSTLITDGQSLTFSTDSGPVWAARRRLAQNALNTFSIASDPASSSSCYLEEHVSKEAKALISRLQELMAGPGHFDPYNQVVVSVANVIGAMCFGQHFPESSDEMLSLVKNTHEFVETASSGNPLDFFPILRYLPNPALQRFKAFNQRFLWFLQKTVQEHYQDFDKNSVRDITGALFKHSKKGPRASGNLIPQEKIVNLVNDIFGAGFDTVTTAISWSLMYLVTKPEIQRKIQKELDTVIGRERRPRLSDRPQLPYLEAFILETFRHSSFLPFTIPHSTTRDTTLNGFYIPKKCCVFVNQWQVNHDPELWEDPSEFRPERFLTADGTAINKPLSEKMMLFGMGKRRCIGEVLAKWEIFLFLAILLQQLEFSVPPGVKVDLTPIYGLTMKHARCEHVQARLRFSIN

Cytochrome P450 3A4 = Cytochrome P450 3A4 (Homo sapiens, UniProt P08684);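 further: CYP3A4 tested as one member of a cytochrome P450 panel screen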
Sequence of Cytochrome P450 3A4 (P08684 whole entry): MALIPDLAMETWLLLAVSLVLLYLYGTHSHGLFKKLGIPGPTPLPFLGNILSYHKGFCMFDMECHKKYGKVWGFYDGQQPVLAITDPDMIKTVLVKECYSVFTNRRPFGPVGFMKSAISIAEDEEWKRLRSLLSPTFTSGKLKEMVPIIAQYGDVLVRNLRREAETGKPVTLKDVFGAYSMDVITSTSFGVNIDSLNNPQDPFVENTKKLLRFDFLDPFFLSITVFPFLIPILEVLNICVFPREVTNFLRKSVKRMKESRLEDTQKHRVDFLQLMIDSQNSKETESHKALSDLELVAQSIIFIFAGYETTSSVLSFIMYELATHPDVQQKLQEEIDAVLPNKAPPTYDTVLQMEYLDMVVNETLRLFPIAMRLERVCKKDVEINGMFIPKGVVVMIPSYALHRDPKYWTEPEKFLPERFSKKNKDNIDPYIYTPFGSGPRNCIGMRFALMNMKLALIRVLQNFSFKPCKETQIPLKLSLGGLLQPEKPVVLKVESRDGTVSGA

[11] = biological target: Luciferin 4-monooxygenase (Photinus pyralis, UniProt P08659); experiment: inhibition of purified Photinus pyralis luciferase – biochemical, luminescence, dose response (AID 1891)
Sequence of Luciferin 4-monooxygenase (P08659 whole entry): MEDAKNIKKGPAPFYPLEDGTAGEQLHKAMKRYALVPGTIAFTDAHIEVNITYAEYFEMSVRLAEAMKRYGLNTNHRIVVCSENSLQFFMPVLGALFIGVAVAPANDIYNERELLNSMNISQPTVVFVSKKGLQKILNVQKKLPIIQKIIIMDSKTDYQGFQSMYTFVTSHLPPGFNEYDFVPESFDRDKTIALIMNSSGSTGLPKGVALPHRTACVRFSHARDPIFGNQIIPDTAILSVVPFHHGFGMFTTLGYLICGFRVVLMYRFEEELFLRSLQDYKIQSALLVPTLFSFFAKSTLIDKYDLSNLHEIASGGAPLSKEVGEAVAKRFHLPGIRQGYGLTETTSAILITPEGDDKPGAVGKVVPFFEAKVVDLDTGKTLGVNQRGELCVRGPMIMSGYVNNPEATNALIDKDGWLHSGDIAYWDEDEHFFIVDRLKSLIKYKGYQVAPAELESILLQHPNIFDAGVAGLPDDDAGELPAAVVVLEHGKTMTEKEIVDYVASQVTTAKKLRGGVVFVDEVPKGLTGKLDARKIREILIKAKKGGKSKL

[12] = Luminescence Cell-Based Dose Confirmation HTS to Identify Inhibitors of Platelet Dense Granule Release. [Related pubchem assays: 1663 (Primary HTS), 1678 (Summary of Project)]; assay type: functional

Compound | CC50 [1] | AC50 [2] | EC50 (Protein RecA) | also measured
CCOC(=O)c1sc(Nc2ccc(Br)cc2)nc1C | 27.5 µM (active) |  |  | 
O=C(Oc1ccc(-c2nnco2)cc1)c1ccco1 |  | 17.6 µM (active) | 15.3 µM (active) | 
CO/C(O)=C1/C(C)=NC2=C(C(=O)CCC2)C1c1cn(Cc2ccc(Br)cc2)nc1-c1ccccc1 (configuration not stated) | 17.4 µM (active) |  |  | 
COc1cc(/C=C(\C#N)C(=O)c2c[nH]c3ccccc23)cc(OC)c1O |  | 1.26 µM (active) | 1.18 µM (active) | IC50 [3]: 43.6 µM (active)
Cc1cccc(C2c3[nH]c4ccccc4c3CCN2Cc2cccn2-c2ncccn2)c1 (configuration not stated) | 20.4 µM (active) |  |  | EC50 [4]: 0.647 µM (active); EC50 [5]: 20.7 µM (active)
COc1ccc(CN2CCNC(=O)C2CC(=O)N(C)Cc2ccncn2)c(OC)c1 (configuration not stated) |  | 89.1 µM (active) | 24.7 µM (active) | 
CCn1cnc2c([N+](=O)[O-])c(NS(=O)(=O)c3ccc(C)cc3)ccc21 |  |  |  | EC50 (BJ [6]): > 150 µM (not active); EC50 (BJ [7]): > 150 µM (not active); EC50 (BJ [8]): > 150 µM (inconclusive); EC50 [9]: > 150 µM (not active)
CC(=O)NC(c1ccc(Cl)cc1)c1c(O)ccc2ccc(O)cc12 (configuration not stated) |  | > 120 µM (inactive) | 4.61 µM (active) | 
COc1ccc(-c2nc(-c3cc([N+](=O)[O-])ccc3C)c(-c3ccccc3)[nH]2)cc1O | 15.1 µM (active) |  |  | 
COc1cc(C2C(C#N)=C(N)Oc3[nH]nc(C)c32)cc2c1OCO2 (configuration not stated) |  | 2.11 µM (active) | 1.38 µM (active) | 
O=C(CN1C(=O)S/C(=C\C=C\c2ccccc2)C1=O)Nc1ccccc1C(=O)O |  | 8.47 µM (active) | 10.8 µM (active) | EC50 [10]: 5.14 µM (active); EC50 (Streptokinase A): 4.37 µM (active); EC50 (Streptococcus): 14.9 µM (active)
COc1ccc(/C=C2\SC(=S)N(CC(=O)OCC(=O)Nc3cc(Cl)cc(Cl)c3)C2=O)cc1 |  |  |  | EC50 (BJ [6]): > 150 µM (not active); EC50 (BJ [7]): > 150 µM (not active); EC50 (BJ [8]): > 150 µM (not active); EC50 [9]: > 150 µM (not active)
CN(CC(=O)Nc1ccc(Cl)c(C(F)(F)F)c1)C(=O)c1cc(-c2ccncc2)nc2ccccc12 | 20 µM (active) |  |  | 
O=C(NC12CC3CC(CC(C3)C1)C2)c1ccc(COc2ccc(Cl)cc2[N+](=O)[O-])o1 | 32.4 µM (active) |  |  | AC50 (Cytochrome P450 2D6): 28.2 µM (inconclusive); AC50 (Cytochrome P450 1A2): 14.1 µM (inconclusive); AC50 (Cytochrome P450 3A4): 15.8 µM (inconclusive)
CCc1ccc(NS(=O)(=O)c2ccc3ncc(C(=O)N4CCc5ccccc54)c(O)c3c2)cc1 | > 50 µM (active) |  |  | 
Cc1ccc(-n2nc3c(=O)n(CCCC(=O)NCc4ccccc4Cl)nc(C)c3c2C)cc1 | > 50 µM (active) |  |  | 
COc1ccc(/C=C2/C(=O)N(c3ccccc3)N=C2C)c(OC)c1 |  | 3.87 µM (active) | 2.64 µM (active) | 
COc1cc2c(C(=O)N3CCOCC3)c(CSc3ccccc3)n(C)c2cc1Br | 20.7 µM (active) |  |  | 
CCCCCN1N=C(C)CC1=O |  | 6.18 µM (active) | 2.79 µM (active) | 
CCOC(=O)C1CCC2(CC1)C(C#N)=C(N)Oc1[nH]nc(C)c12 (configuration not stated) |  | 53.1 µM (active) | > 380 µM (inactive) | 
Cc1noc(O)c1N=Nc1ccc2[nH]c(O)nc2c1 | 22.4 µM (active) |  |  | 
Cc1ccc(-c2c3c(nc4sc(C(N)=O)c(N)c24)CCC3)cc1 |  |  |  | EC50 [11]: > 112 µM (not active); EC50 [12]: > 112 µM (not active); AC50 (Cytochrome P450 2D6): 22.4 µM (inconclusive)
NC(=O)CSc1cn(Cc2cccc(F)c2)c2ccccc12 |  |  |  | EC50 [11]: > 112 µM (not active); EC50 [12]: > 112 µM (not active)
COc1ccc(-c2nc(CSCC(=O)N3CCN(c4cccc(C)c4)C(C)C3)c(C)o2)cc1OC (configuration not stated) |  |  |  | EC50 [11]: > 112 µM (not active); EC50 [12]: > 112 µM (not active)
